From ChEMBL document CHEMBL1144019 (Bioorg Med Chem, 2008)
Converted amounts (≈) assume the structure as drawn.

Tests used:
Format in all cases: functional
Streptococcus pneumoniae = experiment: Antibacterial activity against penicillin-resistant Streptococcus pneumoniae SR-16675 by standard serial agar dilution method
Escherichia coli [1] = experiment: Antibacterial activity against Toho 2 producing Escherichia coli by standard serial agar dilution method
Pseudomonas aeruginosa [2] = experiment: Antibacterial activity against Pseudomonas aeruginosa SR-5393 by standard serial agar dilution method
Pseudomonas aeruginosa [3] = experiment: Antibacterial activity against AmpC hyperproducing Pseudomonas aeruginosa SR24-12 by standard serial agar dilution method
Enterobacter cloacae [4] = experiment: Antibacterial activity against AmpC producing Enterobacter cloacae SR-4321 by standard serial agar dilution method
Haemophilus influenzae [5] = experiment: Antibacterial activity against beta-lactamase negative ampicillin-resistant Haemophilus influenzae SR-11435 by standard serial agar dilution method
Pseudomonas aeruginosa [6] = experiment: Antibacterial activity against Pseudomonas aeruginosa SR24 by standard serial agar dilution method
Enterobacter cloacae [7] = experiment: Antibacterial activity against Enterobacter cloacae ATCC 13047 by standard serial agar dilution method
Haemophilus influenzae [8] = experiment: Antibacterial activity against Haemophilus influenzae ATCC 49766 by standard serial agar dilution method
Staphylococcus aureus = experiment: Antibacterial activity against Staphylococcus aureus Smith by standard serial agar dilution method
Escherichia coli [9] = experiment: Antibacterial activity against Escherichia coli SR-21003 by standard serial agar dilution method
Moraxella catarrhalis = experiment: Antibacterial activity against Moraxella catarrhalis ATCC 43617 by standard serial agar dilution method
Pseudomonas aeruginosa [10] = experiment: Antibacterial activity against imipenem-resistant Pseudomonas aeruginosa SR-6554 by standard serial agar dilution method

SMILES	MIC (Streptococcus pneumoniae) [µg/mL]	MIC (Escherichia coli [1]) [µg/mL]	MIC (Pseudomonas aeruginosa [2]) [µg/mL]	MIC (Pseudomonas aeruginosa [3]) [µg/mL]	MIC (Enterobacter cloacae [4]) [µg/mL]	MIC (Haemophilus influenzae [5]) [µg/mL]	MIC (Pseudomonas aeruginosa [6]) [µg/mL]	MIC (Enterobacter cloacae [7]) [µg/mL]	MIC (Haemophilus influenzae [8]) [µg/mL]	MIC (Staphylococcus aureus) [µg/mL]	MIC (Escherichia coli [9]) [µg/mL]	MIC (Moraxella catarrhalis) [µg/mL]	MIC (Pseudomonas aeruginosa [10]) [µg/mL]
C[C@H](O/N=C(\C(=O)N[C@@H]1C(=O)N2C(C(=O)[O-])=C(C[n+]3cccc4c3ccn4CC(N)=O)CS[C@H]12)c1nc(N)sc1Cl)C(=O)O	2 (≈ 3.02 µM)	2 (≈ 3.02 µM)	4 (≈ 6.03 µM)	4 (≈ 6.03 µM)	4 (≈ 6.03 µM)	0.063 (≈ 0.095 µM)	1 (≈ 1.51 µM)	0.5 (≈ 0.754 µM)	0.032 (≈ 0.0483 µM)	2 (≈ 3.02 µM)	0.25 (≈ 0.377 µM)	0.016 (≈ 0.0241 µM)	16 (≈ 24.1 µM)
C[C@H](N)CCn1c(N)nc2c1ccc[n+]2CC1=C(C(=O)[O-])N2C(=O)[C@@H](NC(=O)/C(=N\O[C@@H](C)C(=O)O)c3nc(N)sc3Cl)[C@H]2SC1	2 (≈ 2.89 µM)	2 (≈ 2.89 µM)	2 (≈ 2.89 µM)	4 (≈ 5.77 µM)	2 (≈ 2.89 µM)	0.063 (≈ 0.0909 µM)	0.5 (≈ 0.721 µM)	0.5 (≈ 0.721 µM)	0.016 (≈ 0.0231 µM)	2 (≈ 2.89 µM)	0.25 (≈ 0.361 µM)	0.008 (≈ 0.0115 µM)	8 (≈ 11.5 µM)
C[C@H](O/N=C(\C(=O)N[C@@H]1C(=O)N2C(C(=O)[O-])=C(C[n+]3ccc(NC4CNC4)cc3)CS[C@H]12)c1nc(N)sc1Cl)C(=O)O	4 (≈ 6.28 µM)	4 (≈ 6.28 µM)	2 (≈ 3.14 µM)	4 (≈ 6.28 µM)	4 (≈ 6.28 µM)	0.25 (≈ 0.392 µM)	0.5 (≈ 0.785 µM)	0.5 (≈ 0.785 µM)	0.063 (≈ 0.0989 µM)	2 (≈ 3.14 µM)	0.5 (≈ 0.785 µM)	0.016 (≈ 0.0251 µM)	8 (≈ 12.6 µM)
C[C@H](O/N=C(\C(=O)N[C@@H]1C(=O)N2C(C(=O)[O-])=C(C[n+]3cccc4c3ccn4CCNC(N)=O)CS[C@H]12)c1nc(N)sc1Cl)C(=O)O	4 (≈ 5.78 µM)	2 (≈ 2.89 µM)	4 (≈ 5.78 µM)	8 (≈ 11.6 µM)	4 (≈ 5.78 µM)	0.063 (≈ 0.091 µM)	1 (≈ 1.44 µM)	0.5 (≈ 0.722 µM)	0.032 (≈ 0.0462 µM)	4 (≈ 5.78 µM)	0.25 (≈ 0.361 µM)	0.032 (≈ 0.0462 µM)	16 (≈ 23.1 µM)
C[C@H](O/N=C(\C(=O)N[C@@H]1C(=O)N2C(C(=O)[O-])=C(C[n+]3cccc4c3ccn4CCO)CS[C@H]12)c1nc(N)sc1Cl)C(=O)O	4 (≈ 6.15 µM)	2 (≈ 3.08 µM)	4 (≈ 6.15 µM)	8 (≈ 12.3 µM)	4 (≈ 6.15 µM)	0.063 (≈ 0.0969 µM)	1 (≈ 1.54 µM)	0.5 (≈ 0.769 µM)	0.032 (≈ 0.0492 µM)	2 (≈ 3.08 µM)	0.25 (≈ 0.385 µM)	0.016 (≈ 0.0246 µM)	16 (≈ 24.6 µM)
C[C@H](O/N=C(\C(=O)N[C@@H]1C(=O)N2C(C(=O)[O-])=C(C[n+]3cccc4c3nc(N)n4CCNCCO)CS[C@H]12)c1nc(N)sc1Cl)C(=O)O	2 (≈ 2.82 µM)	4 (≈ 5.64 µM)	4 (≈ 5.64 µM)	4 (≈ 5.64 µM)	2 (≈ 2.82 µM)	0.063 (≈ 0.0888 µM)	1 (≈ 1.41 µM)	0.5 (≈ 0.705 µM)	0.032 (≈ 0.0451 µM)	4 (≈ 5.64 µM)	0.5 (≈ 0.705 µM)	0.016 (≈ 0.0226 µM)	16 (≈ 22.6 µM)
C[C@H](O/N=C(\C(=O)N[C@@H]1C(=O)N2C(C(=O)[O-])=C(C[n+]3cccc4c3nc(N)n4[C@H]3CCNC3)CS[C@H]12)c1nc(N)sc1Cl)C(=O)O	2 (≈ 2.89 µM)	2 (≈ 2.89 µM)	2 (≈ 2.89 µM)	2 (≈ 2.89 µM)	2 (≈ 2.89 µM)	0.125 (≈ 0.181 µM)	0.5 (≈ 0.723 µM)	0.5 (≈ 0.723 µM)	0.032 (≈ 0.0463 µM)	4 (≈ 5.79 µM)	0.25 (≈ 0.362 µM)	0.016 (≈ 0.0231 µM)	8 (≈ 11.6 µM)
CNCCCn1c(N)cc2c1ccc[n+]2CC1=C(C(=O)[O-])N2C(=O)[C@@H](NC(=O)/C(=N\O[C@@H](C)C(=O)O)c3nc(N)sc3Cl)[C@H]2SC1	4 (≈ 5.78 µM)	2 (≈ 2.89 µM)	2 (≈ 2.89 µM)	2 (≈ 2.89 µM)	2 (≈ 2.89 µM)	0.063 (≈ 0.091 µM)	0.5 (≈ 0.722 µM)	0.5 (≈ 0.722 µM)	0.016 (≈ 0.0231 µM)	1 (≈ 1.44 µM)	0.25 (≈ 0.361 µM)	0.016 (≈ 0.0231 µM)	16 (≈ 23.1 µM)
C[C@H](O/N=C(\C(=O)N[C@@H]1C(=O)N2C(C(=O)[O-])=C(C[n+]3cccc4c3ccn4CC(=O)O)CS[C@H]12)c1nc(N)sc1Cl)C(=O)O	4 (≈ 6.02 µM)	4 (≈ 6.02 µM)	4 (≈ 6.02 µM)	32 (≈ 48.2 µM)	16 (≈ 24.1 µM)	0.063 (≈ 0.0949 µM)	2 (≈ 3.01 µM)	1 (≈ 1.51 µM)	0.016 (≈ 0.0241 µM)	8 (≈ 12 µM)	0.5 (≈ 0.753 µM)	0.032 (≈ 0.0482 µM)	32 (≈ 48.2 µM)
CNCCn1c(N)nc2c[n+](CC3=C(C(=O)[O-])N4C(=O)[C@@H](NC(=O)/C(=N\O[C@@H](C)C(=O)O)c5nc(N)sc5Cl)[C@H]4SC3)ccc21	4 (≈ 5.89 µM)	1 (≈ 1.47 µM)	2 (≈ 2.94 µM)	4 (≈ 5.89 µM)	4 (≈ 5.89 µM)	0.125 (≈ 0.184 µM)	1 (≈ 1.47 µM)	0.5 (≈ 0.736 µM)	0.032 (≈ 0.0471 µM)	16 (≈ 23.6 µM)	0.25 (≈ 0.368 µM)	0.032 (≈ 0.0471 µM)	8 (≈ 11.8 µM)
